Laboratory results as given in patent US20240016863A1, “LACTOBACILLUS JOHNSONII AND METHOD FOR INCREASING THE LEVEL OF UNSATURATION IN FATTY ACID USING LACTOBACILLUS JOHNSONII OR METABOLITES THEREOF” (TCI CO., LTD., priority 2022, published 2024).

Test system: HepG2 cells
Test: Cholesterol metabolism test (cholesterol uptake, NBD cholesterol, flow cytometer)
Assay type: cell-based, Human
Settings: U-18666A 1.25 μM, sample 0.25% (v/v)
Procedure: 1. Cell line: Human liver cells, purchased from ATCC (American Type Culture Collection), cell number: HB-8065, hereinafter referred to as HepG2 cells.
5. Cholesterol Uptake Cell-based Assay Kit: purchased from Cayman; product number: 600440. This cholesterol uptake cell-based assay kit included U-18666A and NBD cholesterol.
1. The HepG2 cells were inoculated into a 6-well culture plate containing 2 mL of cell medium in each well according to a density of 1×10^5 cells per well, and cultured at 37° C. for 24 h. The HepG2 cells were divided into three test groups, i.e., a Mock group, a control group and an experiment group, respectively. Each group underwent trial in triplicate.
2. […]
4. After rinsing, the cells of each group were processed according to the test process provided by the cholesterol uptake cell-based assay kit to obtain a test sample of each group; the parameters of the flow cytometer were set as excitation spectra and emission spectra of FITC, and then a green fluorescence signal of each group was detected by using the flow cytometer.
The relative cholesterol uptake in hepatocytes of all groups was calculated according to the following formula: relative cholesterol uptake in hepatocytes (%)=(green fluorescence signal of each group/green fluorescence signal of the Mock group)×100%.

- relative cholesterol uptake in hepatocytes (HepG2, 20 μg/mL NBD cholesterol, 24-72 h, Mock group = 100%): 143.5%
- relative cholesterol uptake in hepatocytes increased compared with the Mock group (HepG2): about 43.5%
Compound: CCN(CC)CCO[C@H]1CC[C@@]2(C)C(=CC[C@@H]3[C@@H]2CC[C@]2(C)C(=O)CC[C@@H]32)C1 [U-18666A]
